According to ChEMBL document CHEMBL6096662, “Discovery and structure-activity relationship study of nicotinamide derivatives as DNA demethylase ALKBH2 inhibitors” (Eur J Med Chem, 2025):

Experiments:
[1] = target: T1, DNA oxidative demethylase ALKBH2 (Homo sapiens, UniProt Q6NS38); assay: Inhibition of ALKBH2 (56 to 261 residues)(unknown origin) extracted from Escherichia coli BL21 (DE3) using 5'-GAAGACCT(1meA)GGCGTCC-3'/5'- CTGGGACGCCTAGGTCTTCACTG-3' as substrate incubated for 30 mins by FP assay
T1 sequence (Q6NS38 whole entry): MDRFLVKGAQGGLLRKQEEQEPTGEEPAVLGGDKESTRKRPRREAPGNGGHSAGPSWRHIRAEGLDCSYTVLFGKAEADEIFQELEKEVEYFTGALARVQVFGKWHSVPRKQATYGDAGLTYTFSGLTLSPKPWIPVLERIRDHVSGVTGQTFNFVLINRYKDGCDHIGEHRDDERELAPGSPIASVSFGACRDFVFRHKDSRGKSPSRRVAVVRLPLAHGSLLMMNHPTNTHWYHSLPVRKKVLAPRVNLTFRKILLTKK

U-87 MG = assay: Anti-viability activity against human U87 cells by MTT assay; assay type: functional, cell-based, U-87MG ATCC
[2] = target: Alpha-ketoglutarate-dependent dioxygenase FTO (Homo sapiens, UniProt Q9C0B1); assay: Inhibition of demethylase activity of FTO (35 to 505 residues)(unknown origin) extracted from Escherichia coli BL21 (DE3) using 6meA dsDNA as substrate incubated for 30 mins by methylation-sensitive restriction enzyme digestion assay
Sequence of Alpha-ketoglutarate-dependent dioxygenase FTO (Q9C0B1 whole entry, the tested form may be a part): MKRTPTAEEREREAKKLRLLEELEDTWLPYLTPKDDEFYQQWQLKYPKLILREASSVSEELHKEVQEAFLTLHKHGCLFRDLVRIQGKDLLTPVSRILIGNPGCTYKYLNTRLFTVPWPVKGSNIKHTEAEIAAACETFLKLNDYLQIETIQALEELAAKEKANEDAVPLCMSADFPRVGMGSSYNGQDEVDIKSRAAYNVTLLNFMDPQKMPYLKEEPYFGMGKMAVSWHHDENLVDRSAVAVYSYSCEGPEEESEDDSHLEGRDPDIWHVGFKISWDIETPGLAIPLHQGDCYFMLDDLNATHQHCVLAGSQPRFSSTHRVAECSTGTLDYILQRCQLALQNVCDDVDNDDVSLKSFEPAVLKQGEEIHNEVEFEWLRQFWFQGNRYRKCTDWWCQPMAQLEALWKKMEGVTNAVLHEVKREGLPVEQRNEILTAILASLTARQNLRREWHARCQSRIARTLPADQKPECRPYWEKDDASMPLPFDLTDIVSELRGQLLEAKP

[3] = target: T1, DNA oxidative demethylase ALKBH2; assay: Inhibition of ALKBH2 (56 to 261 residues)(unknown origin) extracted from Escherichia coli BL21 (DE3) using 5meC DNA as substrate by FP assay
RNA demethylase ALKBH5 = RNA demethylase ALKBH5 (Homo sapiens, UniProt Q6P6C2); assay: Inhibition of demethylase activity of ALKBH5 (66 to 292 residues)(unknown origin) extracted from Escherichia coli BL21 (DE3) using 6meA dsDNA as substrate incubated for 30 mins by methylation-sensitive restriction enzyme digestion assay
Sequence of RNA demethylase ALKBH5 (Q6P6C2 whole entry, the tested form may be a part): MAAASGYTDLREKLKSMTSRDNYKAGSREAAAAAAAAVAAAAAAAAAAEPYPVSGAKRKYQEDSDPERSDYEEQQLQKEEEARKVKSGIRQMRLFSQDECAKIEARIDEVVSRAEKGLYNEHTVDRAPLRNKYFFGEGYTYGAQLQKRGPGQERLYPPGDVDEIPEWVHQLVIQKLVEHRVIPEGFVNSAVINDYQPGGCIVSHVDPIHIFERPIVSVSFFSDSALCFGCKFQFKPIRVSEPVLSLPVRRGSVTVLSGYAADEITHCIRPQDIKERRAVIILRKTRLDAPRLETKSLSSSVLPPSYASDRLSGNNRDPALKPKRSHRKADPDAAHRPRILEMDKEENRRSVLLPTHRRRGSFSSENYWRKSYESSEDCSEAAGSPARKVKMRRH

[4] = target: T2, Alpha-ketoglutarate-dependent dioxygenase alkB homolog 3 (Homo sapiens, UniProt Q96Q83); assay: Inhibition of demethylase activity of ALKBH3 (70 to 286 residues)(unknown origin) extracted from Escherichia coli BL21 (DE3) using 1meA dsDNA as substrate incubated for 30 mins by methylation-sensitive restriction enzyme digestion assay
T2 sequence (Q96Q83 whole entry): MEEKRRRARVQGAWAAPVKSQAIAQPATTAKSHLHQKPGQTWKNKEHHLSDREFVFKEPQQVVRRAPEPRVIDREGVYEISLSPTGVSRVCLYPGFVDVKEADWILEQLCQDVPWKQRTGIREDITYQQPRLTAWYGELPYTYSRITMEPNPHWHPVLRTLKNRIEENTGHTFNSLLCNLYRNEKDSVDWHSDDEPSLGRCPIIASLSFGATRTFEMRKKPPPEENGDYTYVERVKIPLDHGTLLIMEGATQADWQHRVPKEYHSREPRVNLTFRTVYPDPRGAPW

[5] = Inhibition of demethylase activity of ALKBH1 (19 to 369 residues)(unknown origin) extracted from Escherichia coli BL21 (DE3) using 6meA unpaired dsDNA as substrate incubated for 30 mins by methylation-sensitive restriction enzyme digestion assay; parameters: species or system Homo sapiens
[6] = target: T1, DNA oxidative demethylase ALKBH2; assay: Binding affinity to ALKBH2 (56 to 261 residues)(unknown origin) assessed as dissociation constant by ITC assay
[7] = target: T1, DNA oxidative demethylase ALKBH2; assay: Inhibition of demethylase activity of ALKBH2 (56 to 261 residues)(unknown origin) extracted from Escherichia coli BL21 (DE3) using 1meA dsDNA as substrate incubated for 30 mins in presence of alpha-KG by methylation-sensitive restriction enzyme digestion assay

**Q.** Which IC50 [1] does the source give for `O=C(O)c1cnn(-c2ccccc2)c1` here?
**A.** The IC50 was 86700 nM.

**Q.** Which IC50 [1] does the source give for `O=C(O)c1cnn(-c2ccc(C(=O)N3CCCC(c4ccccc4)C3)cn2)c1` (stereo not drawn) here?
**A.** Its IC50 is 73 nM.

**Q.** For `COC1CCN(C(=O)c2ccc(-n3cc(C(=O)O)cn3)nc2)C1` (stereo not drawn), which IC50 [1] is on record?
**A.** Its IC50 is 378 nM.

**Q.** With `CCOC(=O)c1cnn(-c2ccc(C(=O)NC(c3ccccc3)C(C)(C)C)cn2)c1` (stereo not drawn) as the molecule, how does the IC50 (U-87 MG) read?
**A.** Its IC50 is 4560 nM.

**Q.** Which IC50 [2] does the source give for `CC(C)(C)C(NC(=O)c1ccc(-n2cc(C(=O)O)cn2)nc1)c1ccccc1` (stereo not drawn) here?
**A.** The IC50 was over 200000 nM.

**Q.** What about the IC50 [3] of the same molecule?
**A.** The IC50 was 47 nM.

**Q.** And the IC50 [1]?
**A.** Its IC50 is 31 nM.

**Q.** What about the IC50 (RNA demethylase ALKBH5) of the same molecule?
**A.** Its IC50 is over 200000 nM.

**Q.** What about the IC50 [4] of the same molecule?
**A.** Its IC50 is over 200000 nM.

**Q.** What about the IC50 [5] of the same molecule?
**A.** Its IC50 is over 200000 nM.

**Q.** And the Kd [6]?
**A.** Its Kd is 226 nM.

**Q.** What about the IC50 [7] of the same molecule?
**A.** Its IC50 is 1480 nM.

**Q.** And the IC50 (U-87 MG)?
**A.** Its IC50 is 103000 nM.
